US20250163048A1 (Tango Therapeutics, Inc., priority 2022, published 2025)
Read-outs that look alike come from different tables or passages of the source.

Columns and labels:
[1] = tested on: HAP1 MTAP-deleted cell line; assay: SDMA in-cell western assay, HAP1 MTAP-deleted; conditions: for Hap1 MTAP intact/deleted ratio: IC50 ratio between HAP1 MTAP-intact and HAP1 MTAP-deleted cell line
[2] = tested on: HAP1 MTAP-intact cell line; assay: SDMA in-cell western assay, HAP1 MTAP-intact
MTAP-deleted cell line = assay: viability assay for the MTAP-deleted cell line; type: cell-based
[3] = Homo sapiens, HAP1, read-out: Hap1 MTAP deleted IC50, SDMA in-cell western, HAP1 MTAP-deleted cell line
[4] = Homo sapiens, HAP1, read-out: Hap1 MTAP deleted IC90, SDMA in-cell western, HAP1 MTAP-deleted cell line
[5] = Homo sapiens, HAP1, read-out: Hap1 MTAP intact IC50, SDMA in-cell western, HAP1 MTAP-intact cell line
[6] = Homo sapiens, HAP1, viability assay
[7] = Homo sapiens, HAP1, read-out: Hap1 MTAP deleted IC90, SDMA in-cell western assay, HAP1 MTAP-deleted cell line
[8] = Homo sapiens, HAP1, read-out: Hap1 MTAP intact IC50
[9] = viability assay, read-out: Hap1 MTAP deleted viability IC50
[10] = Homo sapiens, HAP1, read-out: Hap1 MTAP deleted IC50, SDMA in-cell western assay, HAP1 MTAP-deleted cell line
[11] = Homo sapiens, HAP1, read-out: Hap1 MTAP intact IC50, SDMA in-cell western assay, HAP1 MTAP-intact cell line

IC50 [1, 3]	IC90 [1, 4]	IC50 [2, 5]	Structure (SMILES)	Hap1 MTAP intact/deleted ratio ([1]; SDMA in-cell western)	IC50 (MTAP-deleted cell line; [6])	also measured
> 0.05 µM	> 0.125 µM	> 0.05 µM	C[C@@H]1CC[C@@H](c2ccc3sc(CCN(C)C)nc3c2)N(C(=O)C(=O)Nc2cncc3[nH]ncc23)C1 (single isomer, unassigned) [Compound 77, 2-(2-(2-(2-(dimethylamino)ethyl)benzo[d]thiazol-5-yl)-5-methylpiperidin-1-yl)-2-oxo-N-(1H-pyrazolo[3,4-c]pyridin-4-yl)acetamide]	C (“C” indicates an IC50 ratio of less than 15 fold)	> 1 µM	
< 0.005 µM	< 0.075 µM	0.005 to 0.05 µM	C[C@H]1CC[C@H](c2ccc3cccnc3c2)N(C(=O)C(=O)Nc2cnc(N)c3cn[nH]c23)C1 [Compound 121, N-(4-amino-1H-pyrazolo[4,3-c]pyridin-7-yl)-2-((2R,5S)-5-methyl-2-(quinolin-7-yl)piperidin-1-yl)-2-oxoacetamide]	A (“A” indicates an IC50 ratio greater than or equal to 30 fold)	< 0.1 µM	
			CC1OCc2c(NC(=O)C(=O)N3C[C@@H](C)CC[C@@H]3c3ccc4scnc4c3)cnc(N)c21 (single isomer, unassigned) [Compound 287]			IC90 [1, 7]: < 0.075 µM; Hap1 MTAP intact/deleted ratio ([1]; SDMA in-cell western assay): B (“B” indicates an IC50 ratio greater than or equal to 15 fold but lower than 30 fold); IC50 ([1]; read-out: Hap1 MTAP deleted IC50, SDMA in-cell western assay, HAP1 MTAP-deleted cell line): < 0.005 µM; IC50 [2, 8]: > 0.05 µM; IC50 (MTAP-deleted cell line; [9]): < 0.1 µM
0.005 to 0.05 µM	0.075 to 0.125 µM	> 0.05 µM	C[C@@H]1CC[C@@H](c2ccc3cn(C)nc3c2)N(C(=O)C(=O)Nc2cncc3cn[nH]c23)C1 (relative stereo) [Compound 13, 2-[rel-(2S,5R)-5-methyl-2-(2-methylindazol-6-yl)-1-piperidyl]-2-oxo-N-(1H-pyrazolo[4,3-c]pyridin-7-yl)acetamide]	B (“B” indicates an IC50 ratio greater than or equal to 15 fold but lower than 30 fold)	0.1 to 1 µM	
0.005 to 0.05 µM	> 0.125 µM	> 0.05 µM	C[C@H]1CC[C@H](c2ccc3sc(C4CCN(C5COC5)CC4)nc3c2)N(C(=O)C(=O)Nc2cncc3[nH]ncc23)C1 [Compound 50, 2-((2R,5S)-5-methyl-2-(2-(1-(oxetan-3-yl)piperidin-4-yl)benzo[d]thiazol-5-yl)piperidin-1-yl)-2-oxo-N-(1H-pyrazolo[3,4-c]pyridin-4-yl)acetamide]	B (“B” indicates an IC50 ratio greater than or equal to 15 fold but lower than 30 fold)	0.1 to 1 µM	
			CCOc1cc([C@@H]2CC[C@H](C)CN2C(=O)C(=O)Nc2cnc(N)c3cn[nH]c23)ccn1 [Compound 275]		0.1 to 1 µM	IC50 [1, 10]: 0.005 to 0.05 µM; IC90 [1, 7]: > 0.125 µM; Hap1 MTAP intact/deleted ratio ([1]; SDMA in-cell western assay): C (“C” indicates an IC50 ratio of less than 15 fold); IC50 [2, 11]: > 0.05 µM
			C[C@H]1CC[C@H](c2ccc3c(c2)CCN(C)C3)N(C(=O)C(=O)Nc2cnc(N)c3cn[nH]c23)C1 (racemic) [Compound 265, N-(4-Amino-1H-pyrazolo[4,3-c]pyridin-7-yl)-2-oxo-2-[rac-(2R,5S)-5-methyl-2-(2-methyl-3,4-dihydro-1H-isoquinolin-6-yl)-1-piperidyl]acetamide]		< 0.1 µM	IC50 [1, 10]: < 0.005 µM; IC90 [1, 7]: < 0.075 µM; Hap1 MTAP intact/deleted ratio ([1]; SDMA in-cell western assay): C (“C” indicates an IC50 ratio of less than 15 fold); IC50 [2, 11]: 0.005 to 0.05 µM
			C[C@H]1CC[C@H](c2ccc3sc([C@H]4CCN(C)C[C@H]4C)nc3c2)N(C(=O)C(=O)Nc2cncc3cn[nH]c23)C1 (relative stereo) [Compound 106, 2-oxo-N-(1H-pyrazolo[4,3-c]pyridin-7-yl)-2-[(2R,5S)-5-methyl-2-[2-[rel-(3S,4S)-1,3-dimethyl-4-piperidyl]-1,3-benzothiazol-5-yl]-1-piperidyl]acetamide]	C (“C” indicates an IC50 ratio of less than 15 fold)		IC50 ([1]; read-out: Hap1 MTAP deleted IC50, SDMA in-cell western, HAP1 MTAP-deleted cell line): < 0.005 µM; IC90 ([1]; read-out: Hap1 MTAP deleted IC90, SDMA in-cell western, HAP1 MTAP-deleted cell line): < 0.075 µM; IC50 ([2]; read-out: Hap1 MTAP intact IC50, SDMA in-cell western, HAP1 MTAP-intact cell line): 0.005 to 0.05 µM; IC50 (MTAP-deleted cell line; [9]): < 0.1 µM
			Nc1ncc(NC(=O)C(=O)N2[C@@H](c3ccccc3)CCC[C@H]2C(F)(F)F)c2[nH]ncc12 (racemic) [Compound 245, N-(4-Amino-2H-pyrazolo[4,3-c]pyridin-7-yl)-2-oxo-2-[rac-(2R,6S)-2-phenyl-6-(trifluoromethyl)-1-piperidyl]acetamide]		< 0.1 µM	IC50 [1, 10]: < 0.005 µM; IC90 [1, 7]: < 0.075 µM; Hap1 MTAP intact/deleted ratio ([1]; SDMA in-cell western assay): A (“A” indicates an IC50 ratio greater than or equal to 30 fold); IC50 [2, 11]: > 0.05 µM
< 0.005 µM	< 0.075 µM	> 0.05 µM	C[C@@H]1CC[C@@H](c2cc(Cl)cc(Cl)c2)N(C(=O)C(=O)Nc2cnc(N)c3cn[nH]c23)C1 (racemic) [Compound 161, N-(4-amino-1H-pyrazolo[4,3-c]pyridin-7-yl)-2-(rac-(2S,5R)-2-(3,5-dichlorophenyl)-5-methylpiperidin-1-yl)-2-oxoacetamide]	A (“A” indicates an IC50 ratio greater than or equal to 30 fold)	< 0.1 µM	
0.005 to 0.05 µM	< 0.075 µM	> 0.05 µM	C[C@H]1CC[C@H](c2ccc3sc([C@@H](C)N(C)C)nc3c2)N(C(=O)C(=O)Nc2cncc3cn[nH]c23)C1 (single isomer, unassigned) [Compound 167]	A (“A” indicates an IC50 ratio greater than or equal to 30 fold)	< 0.1 µM	
0.005 to 0.05 µM	> 0.125 µM	> 0.05 µM	C[C@H]1CC[C@H](c2ccc3sc(C4CN(C)CCO4)nc3c2)N(C(=O)C(=O)Nc2cncc3cn[nH]c23)C1 (stereo partly drawn) [Compound 39, 2-((2R,5S)-5-methyl-2-(2-(4-methylmorpholin-2-yl)benzo[d]thiazol-5-yl)piperidin-1-yl)-2-oxo-N-(1H-pyrazolo[4,3-c]pyridin-7-yl)acetamide]	B (“B” indicates an IC50 ratio greater than or equal to 15 fold but lower than 30 fold)	< 0.1 µM	
0.005 to 0.05 µM	0.075 to 0.125 µM	> 0.05 µM	C[C@H]1CC[C@H](c2ccc3nn([C@H]4CCN(C)C4)cc3c2)N(C(=O)C(=O)Nc2cncc3cn[nH]c23)C1 [Compound 104, 2-oxo-N-(1H-pyrazolo[4,3-c]pyridin-7-yl)-2-[(2R,5S)-5-methyl-2-[2-[(3S)-1-methylpyrrolidin-3-yl]indazol-5-yl]-1-piperidyl]acetamide]	A (“A” indicates an IC50 ratio greater than or equal to 30 fold)	0.1 to 1 µM	
< 0.005 µM	0.075 to 0.125 µM	> 0.05 µM	C[C@H]1CC[C@H](c2ccc3nn([C@@H]4CCN(C)C4)cc3c2)N(C(=O)C(=O)Nc2cncc3cn[nH]c23)C1 [Compound 36, 2-oxo-N-(1H-pyrazolo[4,3-c]pyridin-7-yl)-2-[(2R,5S)-5-methyl-2-[2-[(3R)-1-methylpyrrolidin-3-yl]indazol-5-yl]-1-piperidyl]acetamide]	A (“A” indicates an IC50 ratio greater than or equal to 30 fold)	0.1 to 1 µM	

Structure (SMILES)	IC50 [1, 3]	IC90 [1, 4]	IC50 [2, 5]	Hap1 MTAP intact/deleted ratio ([1]; SDMA in-cell western)	IC50 (MTAP-deleted cell line; [6])	also measured
C[C@H]1CC[C@H](c2ccc3scnc3c2)N(C(=O)C(=O)Nc2cncc3cn[nH]c23)C1 [Compound 26, 2-((2R,5S)-2-(benzo[d]thiazol-5-yl)-5-methylpiperidin-1-yl)-2-oxo-N-(1H-pyrazolo[4,3-c]pyridin-7-yl)acetamide]	0.005 to 0.05 µM	> 0.125 µM		A (“A” indicates an IC50 ratio greater than or equal to 30 fold)	0.1 to 1 µM	IC50 [2, 8]: > 0.05 µM
